Measured values reported in ChEMBL document CHEMBL1201862, “PubChem BioAssay data set” (2004).
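Five compound concentrations were applied to cells in 96-well plates for 48 hours; endpoints were derived by simple linear interpolation of the resulting dose-response curve. The concentration for 50% growth inhibition is given as GI50.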 Activity calls are given as the source filed them. Cut-off read from the data, not from the text of the source: active = GI50 up to about 1.1 µM and inactive = higher.

Legend:
Assay in all cases: DTP human tumour cell line panel, 48 h
786-0 = system: 786-0
A549 = system: A549
COLO 205 = system: COLO 205
DU-145 = system: DU-145
HCC 2998 = system: HCC 2998
HCT-116 = system: HCT-116
Hs-578T = system: Hs-578T
K562 = system: K562
KM12 = system: KM12
LOX IMVI = system: LOX IMVI
MDA-MB-435 = system: MDA-MB-435
NCI-H460 = system: NCI-H460
OVCAR-4 = system: OVCAR-4
SK-MEL-28 = system: SK-MEL-28
SK-OV-3 = system: SK-OV-3
SN12C = system: SN12C
SNB-19 = system: SNB-19
TK-10 = system: TK-10
U-251 = system: U-251
UO-31 = system: UO-31

SMILES	GI50 (786-0)	GI50 (A549)	GI50 (COLO 205)	GI50 (DU-145)	GI50 (HCC 2998)	GI50 (HCT-116)	GI50 (Hs-578T)	GI50 (K562)	GI50 (KM12)	GI50 (LOX IMVI)	GI50 (MDA-MB-435)	GI50 (NCI-H460)	GI50 (OVCAR-4)	GI50 (SK-MEL-28)	GI50 (SK-OV-3)	GI50 (SN12C)	GI50 (SNB-19)	GI50 (TK-10)	GI50 (U-251)	GI50 (UO-31)
C=C(Br)CN(CC(=C)Br)C(C)=O	> 100 µM (inactive)	> 100 µM (inactive)	> 100 µM (inactive)	> 100 µM (inactive)	> 100 µM (inactive)	> 100 µM (inactive)	> 100 µM (inactive)	> 100 µM (inactive)	> 100 µM (inactive)	> 100 µM (inactive)	> 100 µM (inactive)	> 100 µM (inactive)	> 100 µM (inactive)	> 100 µM (inactive)	> 100 µM (inactive)	> 100 µM (inactive)	78.9 µM (inactive)	> 100 µM (inactive)	> 100 µM (inactive)	> 100 µM (inactive)
CC1(C)N=C(N)N=C(N)N1c1ccc(CCCCc2ccc(S(=O)(=O)F)cc2Cl)c(Cl)c1	0.186 µM (active)	0.706 µM (active)	5.85 µM (inactive)	2.85 µM (inactive)	5.04 µM (inactive)	1.03 µM (active)	74 µM (inactive)	0.425 µM (active)	2.52 µM (inactive)	1.75 µM (inactive)	3.95 µM (inactive)	0.266 µM (active)	37.2 µM (inactive)	4.93 µM (inactive)	106 µM (inactive)	1.16 µM (inactive)	3.64 µM (inactive)	27.7 µM (inactive)	1.02 µM (active)	36.1 µM (inactive)
CN(C)c1ccc(C2SCC(=O)N2c2nc3cc4sc(N5C(=O)CSC5c5ccc(N(C)C)cc5)nc4cc3s2)cc1 (stereo not given)	> 100 µM (inactive)	7.71 µM (inactive)	3.73 µM (inactive)	13.2 µM (inactive)	> 100 µM (inactive)	16 µM (inactive)	47.2 µM (inactive)	40.9 µM (inactive)	39.5 µM (inactive)	43.9 µM (inactive)	28 µM (inactive)	1.53 µM (inactive)	32.9 µM (inactive)	> 72.8 µM (inactive)	85.7 µM (inactive)	> 20.5 µM (inactive)	41.4 µM (inactive)	> 100 µM (inactive)	30.7 µM (inactive)	23.1 µM (inactive)
CN(C)CCCN1C(=O)N(CCCN(C)C)c2c3cc(O)ccc3nc3c([N+](=O)[O-])ccc1c23	8.13 µM (inactive)	13.6 µM (inactive)	13.7 µM (inactive)	27.9 µM (inactive)	11.7 µM (inactive)	14.1 µM (inactive)	21.5 µM (inactive)	4.99 µM (inactive)	14.9 µM (inactive)	10.4 µM (inactive)	18 µM (inactive)	15.6 µM (inactive)	2.29 µM (inactive)	43.3 µM (inactive)	32.7 µM (inactive)	20 µM (inactive)	10.9 µM (inactive)	21.3 µM (inactive)	14.2 µM (inactive)	20.5 µM (inactive)
